Where “and” joins values, the source holds several entries; their conditions need not be identical. Equal values may be shown once. Entries after “also recorded” stand apart in the source; their conditions may differ. Read-outs that look alike come from different tables or passages of the source.
Key:
[1] = tested on: pUR288 lacZ Plasmid Mouse PHs; details: cited from earlier work; for Response in pUR288 lacZ Plasmid Mouse PHs gene mutation assay: ref citations provided
[2] = tested on: MutaMouse primary hepatocytes (PHs); assay: MutaMouse PH in vitro gene mutation assay (lacZ mutant frequency, P-Gal positive selection); details: for Significant MF increase over concurrent vehicle control at any concentration: Bonferroni-corrected contrasts; for Overall treatment effect on MF (Chi-squared test): P < 0.05 significant
MutaMouse = details: cited from earlier work; for Relative potency in the MutaMouse gene mutation assay in vivo: ref Gocke et al., 2009, Luijten et al., 2016, Hanna, 2018, Long et al.
[3] = tested on: MutaMouse FE1 lung epithelial cells; details: cited from earlier work
[4] = tested on: MutaMouse primary hepatocytes (PHs); assay: Cytotoxicity by relative increase in nuclear counts (RINC), flow cytometry; type: cell-based, mouse
Protocol: Cytotoxicity was measured using the relative increase in nuclear counts (RINC) metric. […] To normalize nuclei counts, 150 μL of a suspension of 6 μm fluorescently labeled polystyrene microspheres was added to each sample of lysate. […] Each microsphere‐lysate sample was diluted 1:10 prior to flow cytometric analysis. Data were acquired using a BD Biosciences FACScalibur flow cytometer (BD Biosciences, Mississauga, Ontario) equipped with a 488 nm laser. Instrumentation settings and data acquisition were facilitated using CellQuest Pro software (BD Biosciences). Data analysis was performed using Flowing Software version 2.5.1 (Turku Centre for Biotechnology, Turku, Finland). SYTOX® green and bead fluorescence emission were captured in the FL1 channel (530/30 band‐pass filter). Events were scored as nuclei following the application of key criteria (i.e., within a side scatter (SSC) vs forward scatter (FSC) region, within a region that excludes doublets, and within an FSC vs. FL1 region).

[5] = ref NTP, 1982, 1986, Kirkland et al., 2008, Fowler et al., 2012a, 2016; cited from earlier work
[6] = tested on: hematopoietic tissues (e.g., the bone marrow and blood); details: cited from earlier work
[7] = tested on: p53‐deficient hamster cells; details: ref NTP, 1982, 1986, Kirkland et al., 2008, Fowler et al., 2012a, 2016; cited from earlier work
[8] = tested on: p53‐functional human cells; details: ref NTP, 1982, 1986, Kirkland et al., 2008, Fowler et al., 2012a, 2016; cited from earlier work
liver = tested on: liver; design: method as in Rompelberg et al., 1996a; Rompelberg et al., 1996b; details: ref Rompelberg et al., 1996a, 1996b; cited from earlier work
tk locus = details: S9; PhIP: human TK6 assay; 3-NBA: tk locus in human lymphoblast lines h1A1v2 and MCL-5; ref citations provided; cited from earlier work
[9] = 6 h exposure, 72 h sampling, no exogenous S9
[10] = BMR 100% (twofold MF increase), PROAST covariate analysis
[11] = lower limit of 90% confidence interval of BMD100
[12] = maximum response, concentration not given
[13] = upper limit of 90% confidence interval of BMD100
[14] = ref White et al., 2003, Hanna, 2018
[15] = at or above top concentrations tested

Row | Compound | Response in MutaMouse PH gene mutation assay [2, 9] | BMD100, Exponential model [2, 10] [µg/mL] | BMD100, Hill model [2, 10] [µg/mL] | BMDL, Exponential model [2, 11] [µg/mL] | BMDL, Hill model [2, 11] [µg/mL] | MF fold increase over control in MutaMouse PHs [2, 12] [fold] | BMDU, Exponential model [2, 13] [µg/mL] | BMDU, Hill model [2, 13] [µg/mL] | Response in MutaMouse FE1 gene mutation assay ([3]; S9, ref citations provided) | Relative mutagenic potency by BMD100 covariate analysis ([2]; ranking of positive chemicals) | other results
1 | CCN(N=O)C(N)=O [ENU, N‐ethyl‐N‐nitrosourea] | Positive | 76 | 76 | 36.6 | 36.6 | 4.2 | 178 | 170 | Positive (−S9) | – | MF fold increase in pUR288 lacZ plasmid mouse PHs ([1]; ref Luijten et al., 2016): ~ 4 fold; Response in pUR288 lacZ Plasmid Mouse PHs gene mutation assay [1]: Positive; MF fold-increase over control ([2]; 1,000 μg/mL, 6 h exposure, 72 h sampling): 4.2 fold; Relative potency in the MutaMouse gene mutation assay in vivo (MutaMouse; liver and bone marrow): more potent than BaP; Relative potency in the MutaMouse gene mutation assay in vivo (MutaMouse; small intestine, versus BaP): of equivalent potency; MF fold increase in MutaMouse FE1 cells ([3]; ref White et al., 2003): ~ 6 fold
2 | CC(=O)Nc1ccc2c(c1)Cc1ccccc1-2 [2‐AAF, 2‐acetylaminofluorene] | positive responses | 1.9 | 1.9 | 0.964 | 0.964 | 2.6 | 3.96 | 3.96 | Positive (±S9) | less potent than 3‐NBA and BaP | MF fold-increase over control ([2]; 5 μg/mL, 6 h exposure, 72 h sampling): 2.6 fold; MF fold increase in MutaMouse FE1 cells [3, 14]: ~ 1.7 fold
3 | Cn1c(N)nc2ncc(-c3ccccc3)cc21 [PhIP, 2‐amino‐1‐methyl‐6‐phenylimidazo[4,5‐b]pyridine] | positive responses | 2.6 | 2.6 | 1.05 | 1.05 | 3.7 | 7.8 | 7.05 | Positive (+S9) | less potent than 3‐NBA and BaP | MF fold-increase over control ([2]; 10 μg/mL, 6 h exposure, 72 h sampling): 3.7 fold; MF fold increase in MutaMouse FE1 cells [3, 14]: ~ 5.5 fold
4 | CC(C)(C)c1cc(O)ccc1O [TBHQ, tertiary butylhydroquinone] | Negative | – | – | – | – | – | – | – | – | – | Cytotoxicity (RINC) in words [4]: relatively high RINC obtained at the top concentration; Result in in vitro chromosome aberration test [5]: positive; Genotoxicity result in vivo ([6]; in vivo): negative results in vivo; Significant MF increase over concurrent vehicle control at any concentration [2]: Neither TBHQ nor eugenol yielded a significant increase in MF; Result for micronucleus [7]: positive; Result in in vitro micronucleus assay [8]: negative results
5 | C=CCc1ccc(O)c(OC)c1 [Eugenol] | equivocal | – | – | – | – | – | – | – | – | – | Cytotoxicity (RINC) in words [4, 15]: could not be tested at higher concentrations due to cytotoxicity; also recorded: too cytotoxic to test at higher concentrations; Result in in vitro chromosome aberration test [5]: positive; Genotoxicity result in vivo ([6]; data limited, mainly hematopoietic tissues, ref Kirkland et al., 2016): negative results in vivo; Result in UDS assay (liver): negative results; Significant MF increase over concurrent vehicle control at any concentration [2]: absence of a significant response at any concentration tested; also recorded: Neither TBHQ nor eugenol yielded a significant increase in MF; Overall treatment effect on MF (Chi-squared test) [2]: significant result for the overall treatment effect; Overall treatment effect on MF (Chi-squared test) ([2]; listed as eugenol): significant treatment effect; Result for micronucleus [7]: positive; Result in in vivo MutaMouse assay (MutaMouse; liver, ref Rompelberg et al., 1996a, Rompelberg et al., 1996b): negative results; Result in in vitro micronucleus assay [8]: negative results
6 | CC1(C)S[C@@H]2[C@H](NC(=O)[C@H](N)c3ccccc3)C(=O)N2[C@H]1C(=O)O [Ampicillin trihydrate] | Negative | – | – | – | – | – | – | – | – | – | –
7 | O=C1c2ccccc2-c2ccc([N+](=O)[O-])c3cccc1c23 [3‐NBA, 3‐nitrobenzanthrone] | positive results; also recorded: positive responses | 0.15 | 0.15 | 0.0689 | 0.0689 | 3.6 | 0.373 | 0.363 | Positive (±S9) | most potent | Cytotoxicity (RINC) in words [4, 15]: sharp increase in cytotoxicity; MF fold-increase over control ([2]; 0.5 μg/mL, 6 h exposure, 72 h sampling): 8.2 fold; MF fold increase above solvent control in MutaMouse FE1 cells ([3]; ref Arlt et al., 2008): ~ five
8 | aflatoxin B1 [AFB1] | – | – | – | – | – | – | – | – | – | – | RINC [4]: 0.6 and 0.3; BMD100, Exponential model [2]: 0.47 µg/mL; BMD100, Hill model [2]: 0.47 µg/mL; BMDL, Exponential model [2]: 0.193 µg/mL; BMDL, Hill model [2]: 0.193 µg/mL; BMDU, Exponential model [2]: 1.47 µg/mL; BMDU, Hill model [2]: 1.47 µg/mL; MF fold increase over control in MutaMouse PHs [2]: 3.6 fold; MF fold-increase over control [2]: 3.6 fold and 2.5 fold; Relative mutagenic potency by BMD100 covariate analysis [2]: most potent; Response in MutaMouse PH gene mutation assay [2]: positive responses; MF fold increase in MutaMouse FE1 cells [3]: ~ three; Response in MutaMouse FE1 gene mutation assay [3]: Positive (±S9)
9 | COc1ccc2nc3cc(Cl)ccc3c(NCCCNCCCl)c2c1.Cl.Cl [ICR 191, 6‐chloro‐9‐[3‐(2‐chloroethylamino)propylamino]‐2‐methoxyacridine dihydrochloride] | negative result | – | – | – | – | – | – | – | – | – | Significant MF increase over concurrent vehicle control at any concentration [2]: did not yield a significant increase in MF; Overall treatment effect on MF (Chi-squared test) [2]: nor was a significant treatment effect detected
10 | CN(C)N=O [DMN, dimethylnitrosamine] | positive responses | 7.6 | 7.6 | 3.18 | 3.18 | 14.4 | 21.5 | 16.8 | – | less potent than 3‐NBA and BaP | MF fold-increase over control ([2]; 200 μg/mL, 6 h exposure, 72 h sampling): 14.4 fold
11 | OC[C@@H](O)[C@@H](O)[C@H](O)[C@H](O)CO [D‐Mannitol] | Negative | – | – | – | – | – | – | – | Negative (−S9) | – | Response in pUR288 lacZ Plasmid Mouse PHs gene mutation assay [1]: Negative; Response in MLA (tk locus): Negative (±S9)
